Patent EP2241312A1, “Use of compositions comprising urea for treating microbial infections” (ISDIN S.A., priority 2009, dated 2010)
“And” between values parts separate entries of the source, which are not always exact repeats. Equal values may be shown once.

Tested on: LL-37
Assay: LL-37 expression in confluent human keratinocytes, time course and urea concentration series (real time PCR)
Assay type: cell-based
Details: for fold induction at 1000 µM / fold induction at 5000 µM / fold induction at 20000 µM / fold induction at 50000 µM / fold induction at 100000 µM / fold induction at 10000 µM: Homo sapiens, Keratinocyte; for fold induction at 20000 µM: 20mM urea
Experimental: Primary human epidermal keratinocytes were prepared from neonatal foreskin as described previously (Grether-Beck et al, 1996, 2000, 2003, 2005, 2008) and maintained in culture under serum free conditions using a defined keratinocyte growth medium Keratinocyte SFM (Invitrogen, Heidelberg, Germany) supplemented with bovine pituitary extract (Invitrogen, Heidelberg, Germany) and recombinant epidermal growth factor (Invitrogen, Heidelberg, Germany). Cells were propagated up to passage 2 or 3 at 37°C and 5 % CO2 (Grether-Beck et al, 1996, 2000, 2003, 2005, 2008). For induction of differentiation NHEKs were seeded in 6well plates and grown up to confluence.
For assessment of gene expression total RNA was extracted from frozen biopsies (Ø 4 mm) and gene expression measured by semiquantitative RT-PCR. For isolation of RNA from frozen skin biopsies, 600 µl lysis buffer from PeqGold Total RNA Kit (PeqLab, Erlangen, Germany) were added and the samples were disrupted in a MixerMill MM300 (Retsch, Haan, Germany) three times for 3 min with 30 Hz. 50 ng total RNA were used for cDNA synthesis. PCR reactions were performed in an Opticon 1 (MJ Research, Waltham, MA, USA) using Sybr QPCR Supermix w. Rox (Invitrogen, Karlsruhe, Germany). PCR conditions were as follows: activation of hot start taq polymerase 94° C 15 minutes; denaturation 95° C, 20 seconds; annealing, 55° C, 20 seconds; extension, 72° C 30 seconds. Each sample was subjected to PCR in double using the appropriate primer pairs for 45-50 cycles. For comparison of relative expression in real time PCR control cells and treated cells the 2 (-della delta C(T)) method was used (Livak KJ, and Schmittgen TD. Analysis of relative gene expression data using real time quantitative PCR and the 2 (-delta delta C(T)) method. Methods 2001: 25: 402 - 408). mRNA expression of the genes of interest was shown as fold induction as compared to untreated skin samples of the same volunteer. Table 1: Primer pairs for real time PCR
For determination of relative gene expression in real time PCT the 2(-delta delta C(T))-method was used as described in Livak and Schmittgen (2001) "Analysis of relative gene expression data using real time quantitative PCR and the 2 (-delta delta C(T))-method" Methods 25: 401-408. For statistical analysis, the experimental data were analyzed using the Wilcoxon signed-rank test. […]

## NC(N)=O [urea]
24h, 1mM urea, 1440 min, 1000 µM
  Expression of LL-37: 1.9000
24h, 5mM urea, 1440 min, 5000 µM
  Expression of LL-37: 1.7000
24h, 10mM urea, 1440 min, 10000 µM
  Expression of LL-37: 1.7000
48h, 1mM urea, 2880 min, 1000 µM
  Expression of LL-37: 3.0000
48h, 5mM urea, 2880 min, 5000 µM
  Expression of LL-37: 2.2000 and 1.9000
72h, 1mM urea, 4320 min, 1000 µM
  Expression of LL-37: 10.3000 and 11.4000
72h, 5mM urea, 4320 min, 5000 µM
  Expression of LL-37: 7.1000
72h, 10mM urea, 4320 min, 10000 µM
  Expression of LL-37: 1.7000 and 1.7300
72h, 50mM urea, 4320 min, 50000 µM
  Expression of LL-37: 0.9000
96h, 1mM urea, 5760 min, 1000 µM
  Expression of LL-37: 4.7000 and 5.5000
96h, 5mM urea, 5760 min, 5000 µM
  Expression of LL-37: 4.2000
96h, 10mM urea, 5760 min, 10000 µM
  Expression of LL-37: 3.4000
96h, 100mM urea, 5760 min, 100000 µM
  Expression of LL-37: 1.0000
24 h, 1mM urea
  fold induction at 1000 µM: 1.8
24 h, 5mM urea
  fold induction at 5000 µM: 1.4
24 h
  fold induction at 20000 µM: 1.2
24 h, 50mM urea
  fold induction at 50000 µM: 1.3
24 h, 100mM urea
  fold induction at 100000 µM: 1.2
48 h, 1mM urea
  fold induction at 1000 µM: 3.2
48 h, 5mM urea
  fold induction at 5000 µM: 2.1
48 h, 10mM urea
  fold induction at 10000 µM: 1.5
48 h
  fold induction at 20000 µM: 1.2
48 h, 50mM urea
  fold induction at 50000 µM: 1.2
48 h, 100mM urea
  fold induction at 100000 µM: 0.8
72 h, 1mM urea
  fold induction at 1000 µM: 11.2
72 h, 5mM urea
  fold induction at 5000 µM: 7.2
72 h, 10mM urea
  fold induction at 10000 µM: 1.8
72 h
  fold induction at 20000 µM: 1.6
72 h, 50mM urea
  fold induction at 50000 µM: 0.8
72 h, 100mM urea
  fold induction at 100000 µM: 0.8
96 h, 1mM urea
  fold induction at 1000 µM: 5
96 h, 5mM urea
  fold induction at 5000 µM: 3.9
96 h, 10mM urea
  fold induction at 10000 µM: 3.2
96 h
  fold induction at 20000 µM: 1.6
96 h, 50mM urea
  fold induction at 50000 µM: 1.3
96 h, 100mM urea
  fold induction at 100000 µM: 1.1
